Bridge positions count the residues as written; N and C are the ends. Side chains are listed from the residue outwards. Peptide text beside a SMILES is read from it. * marks the point of attachment. Butanoyl(4-(4-I-phenyl)) = O=C(CCCc1ccc(I)cc1)*; PEG2 = NCCOCCOCCC(=O)O
Legend:
ADRA1A = target: T1, ADRA1A (Homo sapiens, UniProt P35348); test: Safetyscan47 GPCR Calcium Flux, Antagonist; type: cell-based; conditions: for Emax: read-out: Max Response
T1 sequence (P35348 1-466): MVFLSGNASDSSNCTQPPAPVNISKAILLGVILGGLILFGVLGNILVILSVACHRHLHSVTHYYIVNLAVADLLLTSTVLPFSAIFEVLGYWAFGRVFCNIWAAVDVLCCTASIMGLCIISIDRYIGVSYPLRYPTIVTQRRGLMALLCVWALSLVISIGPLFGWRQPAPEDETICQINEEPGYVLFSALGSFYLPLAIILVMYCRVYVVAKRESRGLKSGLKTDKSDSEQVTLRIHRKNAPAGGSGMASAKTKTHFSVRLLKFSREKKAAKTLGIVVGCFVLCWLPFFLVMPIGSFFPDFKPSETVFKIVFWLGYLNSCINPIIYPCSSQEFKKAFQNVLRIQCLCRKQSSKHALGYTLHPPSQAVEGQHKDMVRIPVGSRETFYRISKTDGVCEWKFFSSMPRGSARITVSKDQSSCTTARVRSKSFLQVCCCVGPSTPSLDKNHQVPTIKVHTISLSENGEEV

NMDAR (1A/2B) = NMDAR (1A/2B) (Homo sapiens, UniProt Q05586+Q13224); test: Safetyscan47 Ion Channel, Blocker; type: cell-based; conditions: for Emax: read-out: Max Response
Chain of NMDAR (1A/2B) (Q13224 27-1484, other chains not shown): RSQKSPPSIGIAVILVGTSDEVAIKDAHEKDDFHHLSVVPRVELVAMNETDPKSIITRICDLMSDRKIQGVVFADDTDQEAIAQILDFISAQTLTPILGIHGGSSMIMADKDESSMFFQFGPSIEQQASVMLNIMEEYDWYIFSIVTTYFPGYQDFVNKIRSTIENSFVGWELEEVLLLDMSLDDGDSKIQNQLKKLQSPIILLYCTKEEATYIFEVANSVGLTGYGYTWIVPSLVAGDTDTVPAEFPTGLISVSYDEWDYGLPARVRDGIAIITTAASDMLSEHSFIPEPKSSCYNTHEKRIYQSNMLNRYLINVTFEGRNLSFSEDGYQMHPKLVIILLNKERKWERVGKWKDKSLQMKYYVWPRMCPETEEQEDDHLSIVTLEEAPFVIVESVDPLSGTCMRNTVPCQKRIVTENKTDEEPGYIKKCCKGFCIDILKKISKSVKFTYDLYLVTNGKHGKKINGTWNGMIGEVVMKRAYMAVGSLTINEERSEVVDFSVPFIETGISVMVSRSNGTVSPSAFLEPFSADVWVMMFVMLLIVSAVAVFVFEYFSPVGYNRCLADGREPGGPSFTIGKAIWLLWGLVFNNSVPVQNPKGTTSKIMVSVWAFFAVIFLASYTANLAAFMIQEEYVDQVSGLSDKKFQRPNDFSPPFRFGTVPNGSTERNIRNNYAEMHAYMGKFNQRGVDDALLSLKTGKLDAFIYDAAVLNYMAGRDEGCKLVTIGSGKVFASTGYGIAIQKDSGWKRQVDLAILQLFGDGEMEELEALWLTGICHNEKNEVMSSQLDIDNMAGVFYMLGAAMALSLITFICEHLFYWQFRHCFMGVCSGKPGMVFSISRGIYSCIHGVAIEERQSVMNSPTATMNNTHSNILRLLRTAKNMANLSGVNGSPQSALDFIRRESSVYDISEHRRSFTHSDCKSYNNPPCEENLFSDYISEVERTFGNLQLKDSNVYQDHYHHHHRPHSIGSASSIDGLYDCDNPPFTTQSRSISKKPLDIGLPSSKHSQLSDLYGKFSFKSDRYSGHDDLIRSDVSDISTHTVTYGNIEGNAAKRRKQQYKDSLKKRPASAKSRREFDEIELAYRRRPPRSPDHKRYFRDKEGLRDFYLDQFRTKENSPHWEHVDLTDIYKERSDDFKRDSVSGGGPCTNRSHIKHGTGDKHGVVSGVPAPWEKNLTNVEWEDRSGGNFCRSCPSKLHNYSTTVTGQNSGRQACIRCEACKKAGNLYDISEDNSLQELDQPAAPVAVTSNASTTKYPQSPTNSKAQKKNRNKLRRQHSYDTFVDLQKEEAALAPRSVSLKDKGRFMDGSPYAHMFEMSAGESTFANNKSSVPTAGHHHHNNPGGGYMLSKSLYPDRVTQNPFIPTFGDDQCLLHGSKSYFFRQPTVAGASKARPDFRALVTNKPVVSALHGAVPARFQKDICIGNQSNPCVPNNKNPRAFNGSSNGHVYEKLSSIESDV

[1] = Hepatocyte stability, cryopreserved human hepatocytes; type: in vitro ADME
nAChR(a4/b2) = nAChR(a4/b2) (Homo sapiens, UniProt P17787+P43681); test: Safetyscan47 Ion Channel, Opener; type: cell-based; conditions: for Emax: read-out: Max Response
Chain of nAChR(a4/b2) (P43681 29-627 limits assumed): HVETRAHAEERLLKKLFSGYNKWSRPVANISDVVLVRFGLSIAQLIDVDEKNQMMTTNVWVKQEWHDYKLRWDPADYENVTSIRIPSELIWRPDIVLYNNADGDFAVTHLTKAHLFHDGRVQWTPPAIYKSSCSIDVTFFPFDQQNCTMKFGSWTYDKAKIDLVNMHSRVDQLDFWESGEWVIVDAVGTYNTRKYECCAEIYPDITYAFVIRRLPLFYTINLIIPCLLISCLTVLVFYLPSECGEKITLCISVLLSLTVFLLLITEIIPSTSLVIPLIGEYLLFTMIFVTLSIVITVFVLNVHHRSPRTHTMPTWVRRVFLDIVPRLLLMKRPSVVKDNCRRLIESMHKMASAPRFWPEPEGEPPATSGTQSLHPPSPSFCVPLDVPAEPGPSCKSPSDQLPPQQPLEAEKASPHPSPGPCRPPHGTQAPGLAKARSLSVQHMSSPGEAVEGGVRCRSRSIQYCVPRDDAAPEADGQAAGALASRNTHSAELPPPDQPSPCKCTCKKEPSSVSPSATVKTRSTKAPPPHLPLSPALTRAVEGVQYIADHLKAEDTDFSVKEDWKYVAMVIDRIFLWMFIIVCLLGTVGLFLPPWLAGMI
Chain of nAChR(a4/b2) (P17787 26-502): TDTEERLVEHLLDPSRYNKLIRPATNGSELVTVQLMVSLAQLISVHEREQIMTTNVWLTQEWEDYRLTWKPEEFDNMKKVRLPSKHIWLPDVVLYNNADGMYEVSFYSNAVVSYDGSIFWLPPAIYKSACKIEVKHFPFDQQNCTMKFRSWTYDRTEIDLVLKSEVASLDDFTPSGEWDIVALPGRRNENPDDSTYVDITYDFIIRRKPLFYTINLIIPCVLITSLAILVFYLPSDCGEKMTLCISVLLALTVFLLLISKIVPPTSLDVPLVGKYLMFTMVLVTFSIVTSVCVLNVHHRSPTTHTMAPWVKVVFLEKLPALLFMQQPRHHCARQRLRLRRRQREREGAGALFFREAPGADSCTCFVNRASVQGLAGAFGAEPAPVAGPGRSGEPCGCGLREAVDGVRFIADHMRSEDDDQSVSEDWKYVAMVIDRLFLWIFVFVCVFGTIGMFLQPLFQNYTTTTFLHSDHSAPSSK

MAOA = target: T2, MAOA (Homo sapiens, UniProt P21397); test: Safetyscan47 Non-Kinase Enzymes Enzymatic, Inhibitor; type: biochemical; conditions: for Emax: read-out: Max Response
T2 sequence (P21397 1-527): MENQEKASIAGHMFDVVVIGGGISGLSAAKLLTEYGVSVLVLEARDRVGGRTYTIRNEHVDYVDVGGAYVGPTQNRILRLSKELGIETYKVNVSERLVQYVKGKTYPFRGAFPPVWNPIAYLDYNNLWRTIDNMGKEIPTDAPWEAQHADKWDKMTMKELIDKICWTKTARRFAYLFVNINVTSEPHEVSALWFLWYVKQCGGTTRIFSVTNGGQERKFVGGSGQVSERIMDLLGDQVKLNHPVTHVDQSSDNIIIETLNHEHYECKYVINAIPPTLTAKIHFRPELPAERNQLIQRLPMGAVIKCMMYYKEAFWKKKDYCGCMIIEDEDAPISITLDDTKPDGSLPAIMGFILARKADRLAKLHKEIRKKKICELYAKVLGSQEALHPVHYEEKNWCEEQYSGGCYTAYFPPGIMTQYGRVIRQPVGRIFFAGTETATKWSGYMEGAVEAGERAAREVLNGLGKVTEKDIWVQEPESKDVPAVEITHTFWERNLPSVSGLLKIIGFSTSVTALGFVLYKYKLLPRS

CHRM2 = target: T3, CHRM2 (Homo sapiens, UniProt P08172); test: Safetyscan47 GPCR cAMP, Agonist; type: cell-based; conditions: for Emax: read-out: Max Response
T3 sequence (P08172 1-466): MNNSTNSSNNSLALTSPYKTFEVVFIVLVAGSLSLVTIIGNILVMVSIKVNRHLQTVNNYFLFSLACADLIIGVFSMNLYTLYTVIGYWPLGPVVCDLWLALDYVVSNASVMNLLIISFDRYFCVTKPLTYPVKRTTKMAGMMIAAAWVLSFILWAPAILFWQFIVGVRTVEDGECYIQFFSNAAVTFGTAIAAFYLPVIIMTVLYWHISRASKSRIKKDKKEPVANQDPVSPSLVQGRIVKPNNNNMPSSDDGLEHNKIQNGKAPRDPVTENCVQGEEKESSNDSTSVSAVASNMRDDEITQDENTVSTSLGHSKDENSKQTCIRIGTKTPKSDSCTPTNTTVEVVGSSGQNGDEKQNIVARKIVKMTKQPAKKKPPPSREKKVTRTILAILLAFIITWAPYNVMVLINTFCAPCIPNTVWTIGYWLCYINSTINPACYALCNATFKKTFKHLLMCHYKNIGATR

AVPR1A = AVPR1A (Homo sapiens, UniProt P37288); test: Safetyscan47 GPCR Calcium Flux, Agonist; type: cell-based; conditions: for Emax: read-out: Max Response
Chain of AVPR1A (P37288 whole entry): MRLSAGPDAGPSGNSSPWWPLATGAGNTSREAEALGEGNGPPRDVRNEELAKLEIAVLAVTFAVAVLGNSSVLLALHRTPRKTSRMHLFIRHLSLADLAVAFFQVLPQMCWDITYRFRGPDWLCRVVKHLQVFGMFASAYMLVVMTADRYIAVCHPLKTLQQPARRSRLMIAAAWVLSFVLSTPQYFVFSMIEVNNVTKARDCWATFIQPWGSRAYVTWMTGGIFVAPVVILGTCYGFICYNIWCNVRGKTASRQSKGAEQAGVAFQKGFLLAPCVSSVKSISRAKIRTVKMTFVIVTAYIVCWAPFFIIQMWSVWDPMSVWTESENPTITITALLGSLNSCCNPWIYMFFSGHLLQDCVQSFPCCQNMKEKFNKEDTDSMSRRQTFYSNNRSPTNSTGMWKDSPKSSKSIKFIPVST

## CC[C@H](C)[C@H](NC(=O)[C@H](CC(C)C)NC(=O)[C@H](CC(=O)O)NC(=O)CNC(=O)[C@H](CCCNC(=N)N)NC(=O)[C@@H](NC(=O)[C@H](Cc1ccccc1)NC(=O)[C@H](Cc1ccc(O)cc1)NC(=O)[C@@H]1CCC(=O)NCC(=O)NCC(=O)N[C@@H](CCCNC(=N)N)C(=O)NCC(=O)N[C@@H](Cc2c[nH]cn2)C(=O)N[C@@H](C(C)C)C(=O)N2CCC[C@H]2C(=O)N1)C(C)C)C(=O)N[C@@H](CO)C(=O)N[C@@H](Cc1ccccc1)C(=O)N[C@@H](Cc1ccc(O)cc1)C(=O)N[C@@H](CCCCN)C(=O)O [lassotide 36] (GGRGHVPEYFVRGDLISFYK-OH; lactam N-8)
ADRA1A
  IC50: > 45 µM
  Emax: 9.9%
NMDAR (1A/2B)
  IC50: > 45 µM
  Emax: 0%
[1]
  half-life at 2 μM: 4.1 h
  remaining at 1 h, 2 μM: 87.9%
  remaining at 3 h, 2 μM: 57.8%
nAChR(a4/b2)
  EC50: > 45 µM
  Emax: 11%
MAOA
  IC50: > 45 µM
  Emax: 10.8%
CHRM2
  EC50: > 45 µM
  Emax: 7.71%
AVPR1A
  EC50: > 45 µM
  Emax: 1.03%

## CC[C@H](C)[C@H](NC(=O)[C@H](CC(C)C)NC(=O)[C@H](CC(=O)O)NC(=O)CNC(=O)[C@H](CCCNC(=N)N)NC(=O)[C@@H](NC(=O)[C@H](Cc1ccccc1)NC(=O)[C@H](Cc1ccc(O)cc1)NC(=O)[C@@H]1CCC(=O)NCC(=O)NCC(=O)N[C@@H](CCCNC(=N)N)C(=O)NCC(=O)N[C@@H](Cc2c[nH]cn2)C(=O)N[C@@H](C(C)C)C(=O)N2CCC[C@H]2C(=O)N1)C(C)C)C(=O)N[C@@H](CO)C(=O)N[C@@H](Cc1ccccc1)C(=O)N[C@@H](Cc1ccc(O)cc1)C(=O)N[C@@H](CCCCNC(=O)CCOCCOCCNC(=O)CCCc1ccc(I)cc1)C(=O)O [lassotide 47] (GGRGHVPEYFVRGDLISFYK([PEG2-Butanoyl(4-(4-I-phenyl))])-OH; lactam N-8)
ADRA1A
  IC50: > 45 µM
  Emax: 2.58%
NMDAR (1A/2B)
  IC50: > 45 µM
  Emax: 0%
[1]
  remaining at 1 h, 2 μM: 85.3%
  remaining at 3 h, 2 μM: 84.8%
nAChR(a4/b2)
  EC50: > 45 µM
  Emax: 0%
MAOA
  IC50: > 45 µM
  Emax: 0%
CHRM2
  EC50: > 45 µM
  Emax: 32.7%
AVPR1A
  EC50: > 45 µM
  Emax: 8.02%

Source: paper doi:10.1101/2025.01.28.635346v1 (bioRxiv, 2025)
